In patent publication US20040186166A1, “Cannabinoid analogs as peroxisome proliferator activated nuclear receptor gamma activators” (priority 2002, published 2004):

Assays:
Type in all cases: cell-based
[1] = target: T1, PPARγ ΔAF2 mutant (Mus musculus, UniProt P37238); experiment: PPRE-Luc reporter assay, AF-2 helix-truncated PPARγ
T1 construct: introduce a stop codon and a NheI restriction site after amino acid 489; expressed in transfected cells; host or cells: HEK293
T1 sequence (P37238 1-459 isoform P37238-2): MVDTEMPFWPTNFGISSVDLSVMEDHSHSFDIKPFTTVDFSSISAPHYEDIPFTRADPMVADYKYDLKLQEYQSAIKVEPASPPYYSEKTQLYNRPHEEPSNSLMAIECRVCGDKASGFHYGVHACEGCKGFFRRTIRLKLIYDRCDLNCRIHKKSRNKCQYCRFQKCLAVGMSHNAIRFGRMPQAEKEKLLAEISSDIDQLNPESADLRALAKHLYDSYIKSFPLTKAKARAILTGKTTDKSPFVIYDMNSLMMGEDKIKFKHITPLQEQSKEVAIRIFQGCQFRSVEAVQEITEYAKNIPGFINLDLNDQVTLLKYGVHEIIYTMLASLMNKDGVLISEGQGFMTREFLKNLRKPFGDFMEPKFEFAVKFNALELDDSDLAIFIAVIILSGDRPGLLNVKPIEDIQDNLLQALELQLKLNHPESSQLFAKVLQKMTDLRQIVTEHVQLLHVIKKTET
Source text: The-pCMX-Gal4-mPPARγ1 was constructed by fusing the mPPARγ1 coding sequence to the yeast GAL4 DNA binding domain (amino acid 1-147) in the pCMX vector. The AF-2 helix-truncated mutant of mPPARγ1 (PPARγ ΔAF2) was generated by PCR amplification-to introduce a stop codon and a NheI restriction site after amino acid 489, and then-subcloned into the pCMX vector. The PPRE-TK-LUC, MH100-TK-LUC-and DR1-TK-LUC reporters have been described previously (Forman et al., Cell 83:803-812, 1995; Umesono et al., Cell 65:1255-1266, 1991).
For PPARγ activation assay, HEK293 cells were plated in 12-well cell culture plates and maintained in Dulbecco's modified Eagle's medium (DMEM) supplemented with 10% fetal bovine serum (FBS) at 37° C. under 5% CO2. Cells were changed to phenol red-free DMEM supplemented with 10% charcoal-stripped fetal bovine serum 3 hours before transfection by a standard calcium-phosphate precipitation method. Twelve hours after transfection, the cells were washed with phosphate-buffered saline (PBS) and fed again with fresh medium containing the indicated concentrations of compounds. After 36 hours, cells were harvested for β-galactosidase and luciferase activities as described previously (Li et al., Proc Natl Acad Sci USA 94:8479-84, 1997). The average normalized luciferase activity was determined via triplicate experiments. […]

[2] = tested on: human IL-8 promoter; experiment: IL-8 promoter luciferase assay, HeLa cells with wild type PPARγ
Method: For PPARγ activation assay, HEK293 cells were plated in 12-well cell culture plates and maintained in Dulbecco's modified Eagle's medium (DMEM) supplemented with 10% fetal bovine serum (FBS) at 37° C. under 5% CO2. Cells were changed to phenol red-free DMEM supplemented with 10% charcoal-stripped fetal bovine serum 3 hours before transfection by a standard calcium-phosphate precipitation method. Twelve hours after transfection, the cells were washed with phosphate-buffered saline (PBS) and fed again with fresh medium containing the indicated concentrations of compounds. After 36 hours, cells were harvested for β-galactosidase and luciferase activities as described previously (Li et al., Proc Natl Acad Sci USA 94:8479-84, 1997). The average normalized luciferase activity was determined via triplicate experiments. For IL-8 promoter assay, HeLa cells were maintained and transfected in the same way as described above. After transfection, cells were recovered for 4 hours before treatment with AJA, GW347845, or solvent. After 3-4 hours, cells were treated with or without 25 nM of phorbol myristate acetate (PMA) for 24 hours.
The IL-8 luciferase reporter controlled by the human IL-8 promoter (-97/-69) was cotransfected with mPPARγ or mPPARγ ΔAF2 mutant into HeLa cells. After transfection, cells were treated with AJA, GW347845 or solvent after PMA treatment for 24 hours. This was performed by determining the effect of AJA on IL-8 promoter activity and the role of PPARγ in this process. IL-8 is a biomarker for inflammation, and reduction of IL-8 levels correlates with a decrease in inflammation. The involvement of PPARγ in regulating IL-8 promoter activity was determined by comparing the IL-8 promoter activity in the presence of wild type PPARγ or its ΔAF2 mutant. In the experiment illustrated in FIG. 6A, PMA stimulated IL-8 promoter activity 3 fold, which was set as 100% promoter activity.

[3] = tested on: 3T3 L1 fibroblasts; experiment: Adipocyte differentiation assay, Oil Red O staining; conditions: 20 μM AJA, 10 days, 10 μg/ml insulin
Method: The adipocyte differentiation assay was performed as described by Mukherjee et. al. (Mol Endocrinol 14: 1425-33, 2000). The 3T3 L1 cells (American Type Culture Collection) were cultured in DMEM media supplemented with 10% calf serum. Two days after reaching confluence, cells were treated with AJA, GW347845, or vehicle (0.1% DMSO) in the presence of 10 μg/ml insulin every other day. After 10 days of treatment with AJA or 7 days with GW347845 at confluence, cells were fixed and stained with Oil Red O (Sigma). For RT-PCR, total cellular RNAs were isolated by TRIzol (Gibco). Reverse transcriptase polymerase chain reaction (RT-PCR) was performed using the superscript first-strand synthesis kit (Invitrogen). After first-strand cDNA was synthesized by use of oligo (dT), cDNA was amplified by PCR. […]
3T3 L1 fibroblasts cells were cultured in DMEM supplemented with 10% calf serum. […] The cells were treated for 10 days with AJA, or 7 days with GW347845, and lipid accumulation in cells was assessed by Oil Red O staining.

CCCCCCC(C)(C)c1cc(O)c2c(c1)OC(C)(C)[C@@H]1CC=C(C(=O)O)C[C@@H]21 [AJA, dimethylheptyl-THC-11-oic acid] was tested, and the “activation of PPRE-Luc reporter through PPARγ ΔAF2 mutant” value [1] was “failed to activate expression of the reporter gene”, the “reduction of PMA-stimulated IL-8 promoter activity” value ([2]; 20 μM, HeLa cells) was “about 40%” and the “significance of the reduction of IL-8 promoter activity” value ([2]; 10 and 20 μM AJA) was “statistically significant”. The “lipid accumulation, Oil Red O staining” value [3] was “dramatic increase in lipid droplet staining”.
